US11702422B2, “Imidazopyridazines as modulators of IL-17” (Janssen Pharmaceutica NV, priority 2020, dated 2023)

Experiments:
[1] = tested on: IL-17A-induced G-CSF production in human normal keratinocyte (NHK); test: NHK Assay: IL-17A-induced G-CSF production in human normal keratinocytes; assay type: cell-based; settings: adult normal human keratinocytes, IL-17A 5 ng/mL, 24 h, simple average if tested more than once
In short: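 HTRF read-out of supernatant G-CSF, quantified from a standard curve, gave IC50 values. Adult keratinocytes, 3000-4000 cells/well, received human IL-17A (5 ng/mL final) pre-mixed 1 h at rt with compound, in 5% FBS and 0.2% DMSO, 24 h at 37° C.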

[2] = target: IL-17A(FLAG-Tagged): IL-17RA(His-Tagged) (Homo sapiens, UniProt Q16552, K93Q); test: IL-17A(FLAG-Tagged): IL-17RA(His-Tagged) Binding Disruption Eu-HTRF Assay; settings: IL-17A/IL-17RA binding disruption, simple average if tested more than once
UniProt Q16552, sequence (Q16552 with tags, fused parts or gaps K93Q): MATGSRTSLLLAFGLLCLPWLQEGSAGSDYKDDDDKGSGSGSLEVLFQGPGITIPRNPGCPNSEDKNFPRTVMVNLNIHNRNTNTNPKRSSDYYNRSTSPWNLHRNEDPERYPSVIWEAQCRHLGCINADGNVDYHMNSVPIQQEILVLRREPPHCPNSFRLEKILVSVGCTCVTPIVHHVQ
In short: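 IC50 comes from a one-site competition fit of the HTRF 665/620 nm ratio. Compound dilutions (2-fold, 22 points) were held 1 h rt with FLAG-tagged IL-17A dimer, then His-tagged IL-17RA plus Eu-cryptate anti-FLAG and D2 anti-His antibodies were added for 2 h rt.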

| SMILES | IC50 [2] [µM] | IC50 [1] [µM] | IC50 ([1]; Homo sapiens, Keratinocyte) [µM] |
| --- | --- | --- | --- |
| Cc1nonc1C(=O)N[C@H](c1cn2ncc(C(C)NC(=O)CCC(F)(F)F)cc2n1)C1CCC(F)(F)CC1 (single isomer, unassigned) [Example 505, N—((S)-(4,4-Difluorocyclohexyl)(7-((R*)-1-(4,4,4-trifluorobutanamido)ethyl)imidazo[1,2-b]pyridazin-2-yl)methyl)-4-methyl-1,2,5-oxadiazole-3-carboxamide] | 5.4 | > 20 | – |
| [2H]C([2H])([2H])C([2H])([2H])n1nccc1C(=O)N[C@H](c1cn2ncc(C(CC)NC(=O)CC3CC(F)(F)C3)cc2n1)C1CCC(F)(F)CC1 (single isomer, unassigned) [Example 506, N—((S)-(7-((R*)-1-(2-(3,3-Difluorocyclobutyl)acetamido)propyl)imidazo[1,2-b]pyridazin-2-yl)(4,4-difluorocyclohexyl)methyl)-1-(ethyl-d5)-1H-pyrazole-5-carboxamide] | 0.2 | – | 0.13 |
| CCC(NC(=O)CC1CC(F)(F)C1)c1cnn2cc([C@@H](NC(=O)c3nonc3C3CC3)C3CCC(F)(F)CC3)nc2c1 (single isomer, unassigned) [Example 507, 4-Cyclopropyl-N—((S)-(7-((R*)-1-(2-(3,3-difluorocyclobutyl)acetamido)propyl)imidazo[1,2-b]pyridazin-2-yl)(4,4-difluorocyclohexyl)methyl)-1,2,5-oxadiazole-3-carboxamide] | 0.056 | – | 0.042 |
| CCC(NC(=O)CC1CC(F)(F)C1)c1cnn2cc([C@@H](NC(=O)c3nonc3C)C3CCC(F)(F)CC3)nc2c1 (single isomer, unassigned) [Example 509, N—((S)-(7-((S*)-1-(2-(3,3-Difluorocyclobutyl)acetamido)propyl)imidazo[1,2-b]pyridazin-2-yl)(4,4-difluorocyclohexyl)methyl)-4-methyl-1,2,5-oxadiazole-3-carboxamide] | 1.9 | – | > 20 |
| Cc1nonc1C(=O)N[C@H](c1cn2ncc(C(C)NC(=O)CCC(F)(F)F)cc2n1)C1CCC(F)(F)CC1 (single isomer, unassigned) [Example 510, N—((S)-(4,4-Difluorocyclohexyl)(7-((S*)-1-(4,4,4-trifluorobutanamido)ethyl)imidazo[1,2-b]pyridazin-2-yl)methyl)-4-methyl-1,2,5-oxadiazole-3-carboxamide] | 0.083 | 0.44 | – |
| CC(C)c1nonc1C(=O)N[C@H](c1cn2ncc(C(NC(=O)CCC(F)(F)F)C(C)C)cc2n1)C1CCC(F)(F)CC1 (single isomer, unassigned) [Example 511, N—((S)-(4,4-Difluorocyclohexyl)(7-((S*)-2-methyl-1-(4,4,4-trifluorobutanamido)propyl)imidazo[1,2-b]pyridazin-2-yl)methyl)-4-isopropyl-1,2,5-oxadiazole-3-carboxamide] | 0.046 | – | 0.021 |
| Cc1nonc1C(=O)N[C@H](c1cn2ncc(C(NC(=O)CC3CC(F)(F)C3)C(C)C)cc2n1)C1CCC(F)(F)CC1 (single isomer, unassigned) [Example 513, N—((S)-(7-((S*)-1-(2-(3,3-Difluorocyclobutyl)acetamido)-2-methylpropyl)imidazo[1,2-b]pyridazin-2-yl)(4,4-difluorocyclohexyl)methyl)-4-methyl-1,2,5-oxadiazole-3-carboxamide] | 0.074 | – | 0.15 |
| O=C(CC1CC(F)(F)C1)NC(c1cnn2cc([C@@H](NC(=O)c3nonc3C3CC3)C3CCC(F)(F)CC3)nc2c1)C(F)F (single isomer, unassigned) [Example 517, 4-Cyclopropyl-N—((S)-(7-((S*)-1-(2-(3,3-difluorocyclobutyl)acetamido)-2,2-difluoroethyl)imidazo[1,2-b]pyridazin-2-yl)(4,4-difluorocyclohexyl)methyl)-1,2,5-oxadiazole-3-carboxamide] | 0.046 | 0.045 | – |
| CC(C)n1nccc1C(=O)N[C@H](c1cn2ncc(C(NC(=O)CC3CC(F)(F)C3)C(F)F)cc2n1)C1CCC(F)(F)CC1 (single isomer, unassigned) [Example 519, N—((S)-(7-((S*)-1-(2-(3,3-Difluorocyclobutyl)acetamido)-2,2-difluoroethyl)imidazo[1,2-b]pyridazin-2-yl)(4,4-difluorocyclohexyl)methyl)-1-isopropyl-1H-pyrazole-5-carboxamide] | 0.19 | 0.053 | – |
| [2H]C([2H])([2H])C([2H])([2H])n1nccc1C(=O)N[C@H](c1cn2ncc(C(COC)NC(=O)CC3CC(F)(F)C3)cc2n1)C1CCC(F)(F)CC1 (single isomer, unassigned) [Example 523, N—((S)-(7-((R*)-1-(2-(3,3-Difluorocyclobutyl)acetamido)-2-methoxyethyl)imidazo[1,2-b]pyridazin-2-yl)(4,4-difluorocyclohexyl)methyl)-1-(ethyl-d5)-1H-pyrazole-5-carboxamide] | 0.27 | 0.11 | – |
| COCC(NC(=O)CC1CC(F)(F)C1)c1cnn2cc([C@@H](NC(=O)c3nonc3C3CC3)C3CCC(F)(F)CC3)nc2c1 (single isomer, unassigned) [Example 524, 4-Cyclopropyl-N—((S)-(7-((S*)-1-(2-(3,3-difluorocyclobutyl)acetamido)-2-methoxyethyl)imidazo[1,2-b]pyridazin-2-yl)(4,4-difluorocyclohexyl)methyl)-1,2,5-oxadiazole-3-carboxamide] | 0.38 | 3.7 | – |
| COCC(NC(=O)CC1CC(F)(F)C1)c1cnn2cc([C@@H](NC(=O)c3nonc3C3CC3)C3CCC(F)(F)CC3)nc2c1 (single isomer, unassigned) [Example 525, 4-Cyclopropyl-N—((S)-(7-((R*)-1-(2-(3,3-difluorocyclobutyl)acetamido)-2-methoxyethyl)imidazo[1,2-b]pyridazin-2-yl)(4,4-difluorocyclohexyl)methyl)-1,2,5-oxadiazole-3-carboxamide] | 0.059 | 0.042 | – |
| CCOCC(NC(=O)CC1CC(F)(F)C1)c1cnn2cc([C@@H](NC(=O)c3nonc3C3CC3)C3CCC(F)(F)CC3)nc2c1 (single isomer, unassigned) [Example 526, 4-Cyclopropyl-N—((S)-(7-((S*)-1-(2-(3,3-difluorocyclobutyl)acetamido)-2-ethoxyethyl)imidazo[1,2-b]pyridazin-2-yl)(4,4-difluorocyclohexyl)methyl)-1,2,5-oxadiazole-3-carboxamide] | 0.32 | 1.2 | – |

The remaining molecules from weak to strong by IC50 [2], led by results:

| IC50 [2] [µM] | SMILES | IC50 [1] [µM] | IC50 ([1]; Homo sapiens, Keratinocyte) [µM] |
| --- | --- | --- | --- |
| 2.2 | [2H]C([2H])([2H])C([2H])([2H])n1nccc1C(=O)N[C@H](c1cn2ncc(C(COC)NC(=O)CC3CC(F)(F)C3)cc2n1)C1CCC(F)(F)CC1 (single isomer, unassigned) [Example 522, N—((S)-(7-((S*)-1-(2-(3,3-Difluorocyclobutyl)acetamido)-2-methoxyethyl)imidazo[1,2-b]pyridazin-2-yl)(4,4-difluorocyclohexyl)methyl)-1-(ethyl-d5)-1H-pyrazole-5-carboxamide] | 3.6 | – |
| 1.9 | Cc1nonc1C(=O)N[C@H](c1cn2ncc(C(NC(=O)CCC(F)(F)F)C(F)F)cc2n1)C1CCC(F)(F)CC1 (single isomer, unassigned) [Example 516, N—((S)-(7-((R*)-2,2-Difluoro-1-(4,4,4-trifluorobutanamido)ethyl)imidazo[1,2-b]pyridazin-2-yl)(4,4-difluorocyclohexyl)methyl)-4-methyl-1,2,5-oxadiazole-3-carboxamide] | > 20 | – |
| 0.9 | CCOCC(NC(=O)CC1CC(F)(F)C1)c1cnn2cc([C@@H](NC(=O)c3ccnn3C(C)C)C3CCC(F)(F)CC3)nc2c1 (single isomer, unassigned) [Example 528, N—((S)-(7-((R*)-1-(2-(3,3-Difluorocyclobutyl)acetamido)-2-ethoxyethyl)imidazo[1,2-b]pyridazin-2-yl)(4,4-difluorocyclohexyl)methyl)-1-isopropyl-1H-pyrazole-5-carboxamide] | 2.4 | – |
| 0.66 | CCC(NC(=O)CC1CC(F)(F)C1)c1cnn2cc([C@@H](NC(=O)c3ccnn3C(C)C)C3CCC(F)(F)CC3)nc2c1 (single isomer, unassigned) [Example 520, N—((S)-(7-((S*)-1-(2-(3,3-Difluorocyclobutyl)acetamido)propyl)imidazo[1,2-b]pyridazin-2-yl)(4,4-difluorocyclohexyl)methyl)-1-isopropyl-1H-pyrazole-5-carboxamide] | – | 5 |
| 0.057 | CCOCC(NC(=O)CC1CC(F)(F)C1)c1cnn2cc([C@@H](NC(=O)c3nonc3C3CC3)C3CCC(F)(F)CC3)nc2c1 (single isomer, unassigned) [Example 527, 4-Cyclopropyl-N—((S)-(7-((R*)-1-(2-(3,3-difluorocyclobutyl)acetamido)-2-ethoxyethyl)imidazo[1,2-b]pyridazin-2-yl)(4,4-difluorocyclohexyl)methyl)-1,2,5-oxadiazole-3-carboxamide] | 0.11 | – |
| 0.03 | CC(C)C(NC(=O)CC1CC(F)(F)C1)c1cnn2cc([C@@H](NC(=O)c3nonc3C3CC3)C3CCC(F)(F)CC3)nc2c1 (single isomer, unassigned) [Example 512, 4-Cyclopropyl-N—((S)-(7-((S*)-1-(2-(3,3-difluorocyclobutyl)acetamido)-2-methylpropyl)imidazo[1,2-b]pyridazin-2-yl)(4,4-difluorocyclohexyl)methyl)-1,2,5-oxadiazole-3-carboxamide] | – | 0.035 |
